Results: patent US20240252488A1 (KOREA RESEARCH INSTITUTE OF CHEMICAL TECHNOLOGY, priority 2020, published 2024)
Counter-ions that a name gives are not always drawn.

molecular target: T1, MLKL (Homo sapiens, UniProt Q8NB16); test: Measurement of binding affinity with MLKL receptor (competitive binding assay, Kd); design: made in house; host or cells: HEK 293 cell line (T7 phage in E. coli BL21-derived host is also described); conditions: not given
T1 sequence (Q8NB16 1-471): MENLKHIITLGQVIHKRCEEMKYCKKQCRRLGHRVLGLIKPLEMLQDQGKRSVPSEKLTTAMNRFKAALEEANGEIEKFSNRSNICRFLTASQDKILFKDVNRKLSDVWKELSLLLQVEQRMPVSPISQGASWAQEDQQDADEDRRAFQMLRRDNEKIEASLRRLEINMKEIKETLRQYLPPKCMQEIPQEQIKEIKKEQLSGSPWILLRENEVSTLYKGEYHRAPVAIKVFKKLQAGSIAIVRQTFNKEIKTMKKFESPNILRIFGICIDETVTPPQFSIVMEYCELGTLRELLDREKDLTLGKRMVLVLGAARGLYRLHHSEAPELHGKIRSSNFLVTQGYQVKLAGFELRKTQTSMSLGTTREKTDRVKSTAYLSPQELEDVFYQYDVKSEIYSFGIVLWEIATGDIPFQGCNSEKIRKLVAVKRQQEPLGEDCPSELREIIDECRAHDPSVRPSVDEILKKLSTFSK
Description: Measurement of Binding Affinity with MLKL Receptor (Competitive Binding Assay)
The binding affinity was evaluated by measuring the Kd value in the following method.
To prepare kinase-tagged T7 phage strains in an E. coli host derived from the BL21 strain, E. coli were grown to log-phase and infected with T7 phage and incubated with shaking at 32° C. until lysis. The lysates were centrifuged and filtered to remove cell debris. For kinase production, it was expressed in human embryonic kidney cell line (HEK 293 cell line), and subsequently tagged with DNA for qPCR detection.
The liganded beads were blocked with excess biotin and washed with blocking buffer (SeaBlock (Pierce), 1% BSA, 0.05% Tween 20, 1 mM DTT) to remove unbound ligand and to reduce non-specific binding. […] Test compounds were prepared as 111× stocks in 100% DMSO.
The compounds were then diluted directly into the assays such that the final concentration of DMSO was 0.9%. All reactions performed in polypropylene 384-well plate. Each was a final volume of 0.02 ml. […] The kinase concentration in the eluates was measured by qPCR.

SMILES | Kd [nM]
Cc1cc(Nc2ncc(Cl)c(Nc3ccccc3S(=O)(=O)C(C)C)n2)c(OC(C)C)cc1C1CCNCC1 [Ceritinib (C2)] | > 10000
Nc1nccnc1C(=O)O[C@@H](C(=O)Nc1ccc(F)cc1)c1ccccc1 [TDH-001, (R)-2-((4-fluorophenyl)amino)-2-oxo-1-phenylethyl 3-aminopyrazine-2-carboxylate] | 94
CC(C)(C)OC(=O)N1CC=C(c2cnc(N)c(C(=O)O[C@@H](C(=O)Nc3ccc(F)cc3)c3ccccc3)c2)CC1 [TDH-066, (R)-1′-(tert-butyl) 5-(2-((4-fluorophenyl)amino)-2-oxo-1-phenylethyl) 6-amino-3′,6′-dihydro-[3,4′-bipyridine]-1′,5(2′H)-dicarboxylate] | 650
Nc1ncc(Br)nc1C(=O)N[C@H](C(=O)Nc1ccc(F)cc1)c1ccccc1 [TDH-067, (S)-3-amino-6-bromo-N-(2-((4-fluorophenyl)amino)-2-oxo-1-phenylethyl)pyrazine-2-carboxamide] | > 10000
Nc1ncc(C2=CCNCC2)nc1C(=O)O[C@@H](C(=O)Nc1ccc(F)cc1)c1ccccc1 [TDH-068, (R)-2-((4-fluorophenyl)amino)-2-oxo-1-phenylethyl 3-amino-6-(1,2,3,6-tetrahydropyridin-4-yl)pyrazine-2-carboxylate hydrochloride] | 380
Nc1ncc(C2=CCNCC2)cc1C(=O)O[C@@H](C(=O)Nc1ccc(F)cc1)c1ccccc1 [TDH-070, (R)-2-((4-fluorophenyl)amino)-2-oxo-1-phenylethyl 6-amino-1′,2′,3′,6′-tetrahydro-[3,4′-bipyridine]-5-carboxylate hydrochloride] | 110
Nc1ncc(C2=CCN(C(=O)CCCCCNC(=O)C3CN(c4cccc5c4C(=O)N(C4CCC(=O)NC4=O)C5=O)C3)CC2)cc1C(=O)O[C@@H](C(=O)Nc1ccc(F)cc1)c1ccccc1 (stereo partly drawn) [TDH-078, (R)-2-((4-fluorophenyl)amino)-2-oxo-1-phenylethyl 6-amino-1′-(6-(1-(2-(2,6-dioxopiperidin-3-yl)-1,3-dioxoisoindolin-4-yl)azetidine-3-carboxamido)hexanoyl)-1′,2′,3′,6′-tetrahydro-[3,4′-bipyridine]-5-carboxylate] | 90
Nc1ncc(C2=CCN(C(=O)CCCCCNC(=O)C3CCN(c4cccc5c4C(=O)N(C4CCC(=O)NC4=O)C5=O)CC3)CC2)cc1C(=O)O[C@@H](C(=O)Nc1ccc(F)cc1)c1ccccc1 (stereo partly drawn) [TDH-080, (R)-2-((4-fluorophenyl)amino)-2-oxo-1-phenylethyl 6-amino-1′-(6-(1-(2-(2,6-dioxopiperidin-3-yl)-1,3-dioxoisoindolin-4-yl)piperidine-4-carboxamido)hexanoyl)-1′,2′,3′,6′-tetrahydro-[3,4′-bipyridine]-5-carboxylate] | 120
Nc1ncc(C2=CCN(C(=O)COCCOCCNc3cccc4c3C(=O)N(C3CCC(=O)NC3=O)C4=O)CC2)cc1C(=O)O[C@@H](C(=O)Nc1ccc(F)cc1)c1ccccc1 (stereo partly drawn) [TDH-082, (R)-2-((4-fluorophenyl)amino)-2-oxo-1-phenylethyl 6-amino-1′-(2-(2-(2-((2-(2,6-dioxopiperidin-3-yl)-1,3-dioxoisoindolin-4-yl)amino)ethoxy)ethoxy)acetyl)-1′,2′,3′,6′-tetrahydro-[3,4′-bipyridine]-5-carboxylate] | 70
Nc1ncc(C2=CCN(C(=O)COCCOCCNc3ccc4c(c3)C(=O)N(C3CCC(=O)NC3=O)C4=O)CC2)cc1C(=O)O[C@@H](C(=O)Nc1ccc(F)cc1)c1ccccc1 (stereo partly drawn) [TDH-083, (R)-2-((4-fluorophenyl)amino)-2-oxo-1-phenylethyl 6-amino-1′-(2-(2-(2-((2-(2,6-dioxopiperidin-3-yl)-1,3-dioxoisoindolin-5-yl)amino)ethoxy)ethoxy)acetyl)-1′,2′,3′,6′-tetrahydro-[3,4′-bipyridine]-5-carboxylate] | 84
Nc1ncc(C2=CCN(C(=O)COCCOCCNC(=O)C3CN(c4ccc5c(c4)C(=O)N(C4CCC(=O)NC4=O)C5=O)C3)CC2)cc1C(=O)O[C@@H](C(=O)Nc1ccc(F)cc1)c1ccccc1 (stereo partly drawn) [TDH-087, (R)-2-((4-fluorophenyl)amino)-2-oxo-1-phenylethyl 6-amino-1′-(2-(2-(2-(1-(2-(2,6-dioxopiperidin-3-yl)-1,3-dioxoisoindolin-5-yl)azetidine-3-carboxamido)ethoxy)ethoxy)acetyl)-1′,2′,3′,6′-tetrahydro-[3,4′-bipyridine]-5-carboxylate] | 38
Nc1ncc(C2=CCN(C(=O)COCCOCCNC(=O)C3CCN(c4ccc5c(c4)C(=O)N(C4CCC(=O)NC4=O)C5=O)CC3)CC2)cc1C(=O)O[C@@H](C(=O)Nc1ccc(F)cc1)c1ccccc1 (stereo partly drawn) [TDH-089, (R)-2-((4-fluorophenyl)amino)-2-oxo-1-phenylethyl 6-amino-1′-(2-(2-(2-(1-(2-(2,6-dioxopiperidin-3-yl)-1,3-dioxoisoindolin-5-yl)piperidine-4-carboxamido)ethoxy)ethoxy)acetyl)-1′,2′,3′,6′-tetrahydro-[3,4′-bipyridine]-5-carboxylate] | 56
Nc1ncc(-c2cnn(C3CCN(CCCCCCCCCCNc4cccc5c4C(=O)N(C4CCC(=O)NC4=O)C5=O)CC3)c2)nc1C(=O)O[C@@H](C(=O)Nc1ccc(F)cc1)c1ccccc1 (stereo partly drawn) [TDH-095, (R)-2-((4-fluorophenyl)amino)-2-oxo-1-phenylethyl 3-amino-6-(1-(1-(10-((2-(2,6-dioxopiperidin-3-yl)-1,3-dioxoisoindolin-4-yl)amino)decyl)piperidin-4-yl)-1H-pyrazol-4-yl)pyrazine-2-carboxylate] | 26
CC(=O)N1CCC(n2cc(-c3cnc(N)c(C(=O)O[C@@H](C(=O)Nc4ccc(F)cc4)c4ccccc4)n3)cn2)CC1 [TDH-097, (R)-2-((4-fluorophenyl)amino)-2-oxo-1-phenylethyl 6-(1-(1-acetylpiperidin-4-yl)-1H-pyrazol-4-yl)-3-aminopyrazine-2-carboxylate] | 0.73
Nc1ncc(-c2cnn(C3CCN(CCCCCCNc4cccc5c4C(=O)N(C4CCC(=O)NC4=O)C5=O)CC3)c2)nc1C(=O)O[C@@H](C(=O)Nc1ccc(F)cc1)c1ccccc1 (stereo partly drawn) [TDH-119, (R)-2-((4-fluorophenyl)amino)-2-oxo-1-phenylethyl 3-amino-6-(1-(1-(6-((2-(2,6-dioxopiperidin-3-yl)-1,3-dioxoisoindolin-4-yl)amino)hexyl)piperidin-4-yl)-1H-pyrazol-4-yl)pyrazine-2-carboxylate] | 7.9
CCN1CCN(c2ccc(-c3cnc(N)c(C(=O)O[C@@H](C(=O)Nc4ccc(F)cc4)c4ccccc4)n3)cn2)CC1 [TDH-183, (R)-2-((4-fluorophenyl)amino)-2-oxo-1-phenylethyl 3-amino-6-(6-(4-ethylpiperazin-1-yl)pyridin-3-yl)pyrazine-2-carboxylate] | 2
CC(C)(C)OC(=O)N1CC[C@H](n2cc(-c3cnc(N)c(C(=O)OC(C(=O)Nc4ccc(F)cc4)c4ccccc4)n3)cn2)C1 (stereo partly drawn) [TDH-227, 2-((4-fluorophenyl)amino)-2-oxo-1-phenylethyl 3-amino-6-(1-((S)-1-(tert-butoxycarbonyl)pyrrolidin-3-yl)-1H-pyrazol-4-yl)pyrazine-2-carboxylate] | 12
CC(=O)N1CC[C@H](n2cc(-c3cnc(N)c(C(=O)OC(C(=O)Nc4ccc(F)cc4)c4ccccc4)n3)cn2)C1 (stereo partly drawn) [TDH-228, 2-((4-fluorophenyl)amino)-2-oxo-1-phenylethyl 6-(1-((S)-1-acetylpyrrolidin-3-yl)-1H-pyrazol-4-yl)-3-aminopyrazine-2-carboxylate] | 1.2

tested on: FADD−/− Jurkat cells; test: Necroptosis inhibition assay, TNF-α-induced necroptosis (CellTiter-Glo 2.0); format: cell-based, human; conditions: compound 1 μM; TNF-α 15 ng/mL
Description: Necroptosis Inhibition Assay
Necroptosis inhibition was evaluated by the following method.
80 μL of FADD gene-defective human T lymphocyte cells (FADD−/− Jurkat cells) were equally distributed into each well at 5.0×10^5 cells/mL in a white 96-well plate with a transparent bottom. 20 μL of the medium containing test compound was treated in each well so that the final concentration of the compound was 0.1, 1, and 10 μM, and reacted at room temperature for 30 minutes. After the 30-minute reaction was over, TNF (tumor necrosis factor)-α was treated in the corresponding well so that the final concentration of TNF-α was 15 ng/mL in order to induce necroptosis. It was cultured in a 5% CO2, 37° C. incubator for 20 to 24 hours.
After incubation, the 96-well plate was left at room temperature for 30 minutes. After 30 minutes, Promega's CellTiter-Glo 2.0 reagent was diluted 1:3 with PBS and 100 μL of the diluted solution was added to each well to confirm cell viability by measuring the amount of ATP. After the treatment, the plate was shielded from light and incubated at room temperature for 2 minutes with orbital shaking, and then left at room temperature for 10 minutes without shaking. After measuring the luminescence at 0.5 seconds per well using a plate scanner, the cytotoxicity and necroptosis inhibition rate for the compound were calculated using the measured values.

SMILES | Necroptosis inhibition assay (Rescue %) 1 μM [%]
Nc1nccnc1C(=O)N[C@@H](C(=O)Nc1ccc(F)cc1)c1ccccc1 [TDH-106, (R)-3-amino-N-(2-((4-fluorophenyl)amino)-2-oxo-1-phenylethyl)pyrazine-2-carboxamide] | 13.76

same assay, conditions: compound 10 μM; TNF-α 15 ng/mL

SMILES | Necroptosis inhibition assay (Rescue %) 10 μM [%]
Nc1nccnc1C(=O)N[C@@H](C(=O)Nc1ccc(F)cc1)c1ccccc1 [TDH-106, (R)-3-amino-N-(2-((4-fluorophenyl)amino)-2-oxo-1-phenylethyl)pyrazine-2-carboxamide] | 34.33
